Measurements: patent US6893821B2, “Agents that modulate DNA-PK activity and methods of use thereof” (The Regents of the University of California, priority 2000, dated 2005)

Test system: IκB kinase (IKK) complex
Test: IKK kinase assay on IKK complex immunoprecipitated from treated BMDM (IκBα N-terminus substrate)
Type: cell-based, mice
Procedure: Kinase assays and immunoblotting were performed according to Li et al. ((1999) J. Exp. Med. 189:1839-1845). Briefly, BMDM were treated with ISS-ODN (5 μg/ml), M-ODN (5 μg/ml) on ps and po backbones as indicated, LPS-free bacterial DNA or methylated bacterial DNA (5 μg/ml), LPS-free calf thymus DNA (5 μg/ml), LPS (10 μg/ml) or TNFα (10 ng/ml) for the indicated time periods. Cell lysates were prepared and normalized by immunoblotting (IB) with anti-IKKα polyclonal antibodies (Santa Cruz, Santa Cruz Biotech Inc., Calif.), anti-IKKβ polyclonal antbodies (Santa Cruz) or anti-DNA-PKcs monoclonal antibodies (NeoMarker, Calif.). IκB kinase (IKK) complex or DNA-PK complex from 100 μg of the lysates were immunoprecipitated by anti-IKKα or by anti-DNA-PKcs antibodies. The kinase activities (KA) were determined by a kinase assay using the N-terminus of IκBα (for IKK) or the N-terminus of p53 (for DNA-PK) as a substrate as previously described. Wang et al. (1992) Proc. Natl. Acad. Sci. USA 89:4231-4235; Li et al.(1999), supra; and Hammarsten et al. (2000) J. Biol. Chem. 275:1541-1545.

IKK activation, wt vs ATM-deficient BMDM (ATM-deficient BMDM): no differences were observed
IKK activation (DNA-PKcs-/- BMDM as compared to wt): little increase in IKK activity
IKK activation (IKKβ-/- Tnfr-/- BMDM (absence of IKKβ)): prevented
IKK activation (wt BMDM): robust IKK activation
duration of IKK activation (wt BMDM): about 4 hrs
time of maximal IKK activation post incubation (wt BMDM): 30 min
ISS-ODN concentration of optimal IKK activation (wt BMDM (FIG. 5B)): 0.65 µg/mL
Substance: 5′-TGACTGTGAACGTTCGAGATGA-3′ [ISS-ODN]
